Bridge positions count the residues as written; N and C are the ends. Peptide text beside a SMILES is read from it.
Tests used:
human Nav1.7 = biological target: T1, human Nav1.7 (Homo sapiens, UniProt Q15858); assay: Automated patch-clamp (Nanion SyncroPatch 384PE) on CHO cells expressing human Nav1.7; assay type: cell-based; details: for time constant of inhibition: mono-exponential fit
T1 construct: expressed in transfected cells
Source text: We used a CHO mammalian cell line expressing the human Nav1.7 instead of Xenopus oocytes for the pharmacological evaluation. […] 100-ms pulses from −100 mV to −10 mV were applied at a frequency of 0.2 Hz and various concentrations of PhlTx1 were applied to the cells. […] Using a manual patch clamp, which is better suited to investigate current recovery from block than an automated patch clamp that requires several washing steps, we investigated the reversibility properties of a PhlTx1 block.
CHO cells stably expressing the human Nav1.7 cells were cultured in Dulbecco’s Modified Eagle’s Medium (DMEM) supplemented with 10% fetal calf serum, 1 mM pyruvic acid, 4 mM glutamine, 10 IU/mL penicillin and 10 μg/mL streptomycin (Gibco, Grand Island, NY, USA), and incubated at 37 °C in a 5% CO2 atmosphere. For automated patch-clamp recordings, cells were detached with trypsin and floating single cells were diluted (~300,000 cells/mL) in medium contained (in mM): 4 KCl, 140 NaCl, 5 Glucose, 10 HEPES (pH 7.4, osmolarity 290 mOsm).
Chips with single-hole and high-resistance (~6–7 MΩ) were used for CHO cell recordings. Voltage pulses and whole-cell recordings were achieved using the PatchControl384 v1.5.2 software (Nanion, Munich, Germany) and the Biomek v1.0 interface (Beckman Coulter). Prior recordings, dissociated cells were shaken at 60 RPM in a cell hotel reservoir at 10 °C. After cell catching, sealing, whole-cell formation, liquid application, recording, and data acquisition were all performed sequentially and automatically. […] Whole-cell experiments were done at −100 mV holding potential and at room temperature (18–22 °C), while currents triggered at −10 mV test potential were sampled at 20 kHz. Stimulation frequency was set at 0.2 Hz. Toxins were prepared at various concentrations in the extracellular solution, itself supplemented with 0.3% BSA. […] Compound solutions were diluted 3 times in the patch-clamp recording well by adding 30 μL to 60 μL external solution to reach the final reported concentration and the test volume of 90 μL. Percentages of current inhibitions were measured at the end of a 12- to 15-min application time (12-min for fast blocking toxins; 15-min for slow blocking ones). A single concentration of peptide was tested on each cell for building the full-inhibition curves.

[1] = tested on: formalin-induced spontaneous pain behavior; assay: Formalin pain test in mice after intrathecal injection; assay type: in vivo, C57BL/6J mice; details: intrathecal, 10 µL; PhlTx1 100 pmoles (n = 5), morphine 0.25 mg (n = 6); 10 µL 5% formalin in hindpaw; versus vehicle

T1 sequence (Q15858 whole entry): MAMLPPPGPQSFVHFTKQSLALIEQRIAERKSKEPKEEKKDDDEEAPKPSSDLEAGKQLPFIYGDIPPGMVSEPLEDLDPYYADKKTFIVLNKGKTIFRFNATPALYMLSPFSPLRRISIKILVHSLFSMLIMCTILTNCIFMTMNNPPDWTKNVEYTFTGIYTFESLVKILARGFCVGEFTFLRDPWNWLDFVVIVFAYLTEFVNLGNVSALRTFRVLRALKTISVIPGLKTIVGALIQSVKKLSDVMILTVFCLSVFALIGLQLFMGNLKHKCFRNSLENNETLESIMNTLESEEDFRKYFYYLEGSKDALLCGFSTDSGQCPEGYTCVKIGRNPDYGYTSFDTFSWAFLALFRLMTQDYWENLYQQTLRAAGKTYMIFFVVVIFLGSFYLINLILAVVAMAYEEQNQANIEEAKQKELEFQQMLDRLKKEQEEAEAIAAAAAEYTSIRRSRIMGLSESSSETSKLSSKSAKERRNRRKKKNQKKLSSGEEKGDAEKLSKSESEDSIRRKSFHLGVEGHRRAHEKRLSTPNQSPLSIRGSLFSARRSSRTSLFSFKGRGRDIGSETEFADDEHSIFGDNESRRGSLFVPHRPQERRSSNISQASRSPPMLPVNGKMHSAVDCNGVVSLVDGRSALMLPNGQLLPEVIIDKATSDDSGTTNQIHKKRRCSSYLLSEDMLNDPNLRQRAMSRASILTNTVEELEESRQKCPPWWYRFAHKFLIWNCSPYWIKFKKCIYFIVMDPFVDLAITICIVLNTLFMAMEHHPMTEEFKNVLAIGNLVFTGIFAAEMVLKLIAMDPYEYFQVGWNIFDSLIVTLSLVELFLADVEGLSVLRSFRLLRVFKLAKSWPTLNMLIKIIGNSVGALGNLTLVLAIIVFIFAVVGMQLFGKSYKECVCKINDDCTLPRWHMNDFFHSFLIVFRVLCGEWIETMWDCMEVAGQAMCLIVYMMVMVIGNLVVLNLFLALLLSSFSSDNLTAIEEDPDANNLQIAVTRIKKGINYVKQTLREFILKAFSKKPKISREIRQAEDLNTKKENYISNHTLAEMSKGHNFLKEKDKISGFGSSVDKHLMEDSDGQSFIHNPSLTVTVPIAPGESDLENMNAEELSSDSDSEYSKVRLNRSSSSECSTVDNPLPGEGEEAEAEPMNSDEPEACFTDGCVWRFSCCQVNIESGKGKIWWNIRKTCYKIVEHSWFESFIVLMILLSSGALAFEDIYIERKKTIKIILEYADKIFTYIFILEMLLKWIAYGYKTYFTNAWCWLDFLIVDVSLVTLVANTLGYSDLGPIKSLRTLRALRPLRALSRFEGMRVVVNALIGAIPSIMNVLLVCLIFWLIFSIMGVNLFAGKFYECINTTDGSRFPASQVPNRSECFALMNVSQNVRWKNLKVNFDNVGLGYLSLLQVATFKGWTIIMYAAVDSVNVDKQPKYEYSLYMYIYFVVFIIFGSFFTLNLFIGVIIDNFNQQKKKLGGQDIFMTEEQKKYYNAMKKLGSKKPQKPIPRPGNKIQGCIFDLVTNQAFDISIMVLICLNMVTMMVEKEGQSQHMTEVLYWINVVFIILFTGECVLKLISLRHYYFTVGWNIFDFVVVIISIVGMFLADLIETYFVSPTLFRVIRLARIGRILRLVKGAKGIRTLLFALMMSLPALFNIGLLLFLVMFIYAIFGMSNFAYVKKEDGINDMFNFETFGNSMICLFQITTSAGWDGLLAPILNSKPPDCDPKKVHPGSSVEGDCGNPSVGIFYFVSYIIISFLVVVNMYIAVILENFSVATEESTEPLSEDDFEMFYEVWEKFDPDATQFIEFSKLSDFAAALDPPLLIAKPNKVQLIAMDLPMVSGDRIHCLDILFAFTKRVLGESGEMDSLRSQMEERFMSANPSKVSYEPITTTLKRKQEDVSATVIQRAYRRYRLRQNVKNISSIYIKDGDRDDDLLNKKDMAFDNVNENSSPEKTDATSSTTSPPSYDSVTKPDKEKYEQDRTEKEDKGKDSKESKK

CC(C)C[C@@H]1NC(=O)[C@@H](NC(=O)[C@H](C)N)CSSC[C@@H]2NC(=O)[C@@H]3CSSC[C@@H](C(=O)N[C@@H](CCCNC(=N)N)C(=O)N[C@@H](Cc4ccc(O)cc4)C(=O)N[C@@H](CCCCN)C(=O)N[C@@H](CC(C)C)C(=O)N[C@@H](Cc4ccccc4)C(=O)O)NC(=O)[C@H](Cc4c[nH]c5ccccc45)NC(=O)[C@@H]4CCCN4C(=O)[C@H](Cc4ccc(O)cc4)NC(=O)[C@H](CCCCN)NC(=O)[C@H](Cc4c[nH]c5ccccc45)NC(=O)[C@H](CCC(=O)O)NC(=O)[C@H](CSSC[C@H](NC(=O)[C@H](CO)NC(=O)[C@H](CC(=O)O)NC(=O)[C@H](Cc4c[nH]c5ccccc45)NC(=O)[C@H](CCC(N)=O)NC(=O)CNC1=O)C(=O)N[C@@H](CC(=O)O)C(=O)N1CCC[C@H]1C(=O)N[C@@H](CCCCN)C(=O)N[C@@H](C)C(=O)N[C@@H](CO)C(=O)N[C@@H](CCCCN)C(=O)N3)NC(=O)[C@H](C)NC(=O)[C@H](Cc1ccc(O)cc1)NC(=O)[C@H](CC(N)=O)NC(=O)[C@@H]1CCCN1C2=O [PhlTx1, Phlotoxin-1] (H-ACLGQWDSCDPKASKCCPNYACEWKYPWCRYKLF-OH; disulfide 2-17, 9-22, 16-29; N-terminus and C-terminus assumed)
IC50 (human Nav1.7): 0.039 µM
time constant of inhibition (human Nav1.7; 33 nM, n = 4): 253 s
block of Nav1.7 inward current (human Nav1.7; 100 nM toxin, end of application (about 12-13 min), CHO hNav1.7): above 50%
time constant of inhibition (τ) (human Nav1.7; 100 nM, mono-exponential fit (PhlTx1 n = 8)): 159 s
time constant of inhibition (human Nav1.7; 333 nM, n = 6): 97 s
c value of mono-exponential decay fit (block not complete) (human Nav1.7; 1 μM PhlTx1, normalized current): 0.09
time constant of inhibition (human Nav1.7; 1 μM, n = 8): 36 s
Hill value (human Nav1.7; same dose-response fit as IC50, CHO hNav1.7 automated patch-clamp): 1.53
highest achievable inhibition (human Nav1.7; two most efficient concentrations (333 nM and 1 μM)): 85%–92%
formalin-induced pain behavior (licking), Phase II (inflammation, 10–45 min) [1]: substantially reduced the response
formalin-induced pain behavior, Phase I (acute pain, 0–10 min) [1]: substantially reduced the response

Reference: publication PMC6628435, “Chemical Synthesis, Proper Folding, Nav Channel Selectivity Profile and Analgesic Properties of the Spider Peptide Phlotoxin 1” (Toxins, 2019)
